Assay: Surface tension of ophthalmic composition with added surfactant (Biolin Sigma 700/701 tensiometer)
Type: physicochemical
Settings: surfactant added at 0.1% w/v to ophthalmic composition A or B, FIGS. 4-6

| Substance | change of surface tension of the ophthalmic composition | change of surface tension of the ophthalmic composition (listed as tyloxapol) |
| --- | --- | --- |
| polysorbate 80 | surface tension was lowered |  |
| polyoxyl 40 stearate | surface tension was lowered |  |
| tyloxapol | reduced the surface tension the most | surface tension was lowered |
